Reference: patent US20190330275A1 (priority 2016, published 2019)
“And” between values parts separate entries of the source, which are not always exact repeats. Identical values can stand only once. Peptide text beside a SMILES is read from it.

Legend:
rat α3β4 nAChR = rat α3β4 nAChR (Rattus norvegicus, UniProt P04757+P12392); assay: cell-based
rat α6/α3β4 nAChR = rat α6/α3β4 nAChR (Rattus norvegicus, UniProt P04757+P12392+P43143); assay: cell-based
[1] = α6/α3β4 IC50 (half-blocking dose)

Sequence of rat α6/α3β4 nAChR (P04757 whole entry, looked up): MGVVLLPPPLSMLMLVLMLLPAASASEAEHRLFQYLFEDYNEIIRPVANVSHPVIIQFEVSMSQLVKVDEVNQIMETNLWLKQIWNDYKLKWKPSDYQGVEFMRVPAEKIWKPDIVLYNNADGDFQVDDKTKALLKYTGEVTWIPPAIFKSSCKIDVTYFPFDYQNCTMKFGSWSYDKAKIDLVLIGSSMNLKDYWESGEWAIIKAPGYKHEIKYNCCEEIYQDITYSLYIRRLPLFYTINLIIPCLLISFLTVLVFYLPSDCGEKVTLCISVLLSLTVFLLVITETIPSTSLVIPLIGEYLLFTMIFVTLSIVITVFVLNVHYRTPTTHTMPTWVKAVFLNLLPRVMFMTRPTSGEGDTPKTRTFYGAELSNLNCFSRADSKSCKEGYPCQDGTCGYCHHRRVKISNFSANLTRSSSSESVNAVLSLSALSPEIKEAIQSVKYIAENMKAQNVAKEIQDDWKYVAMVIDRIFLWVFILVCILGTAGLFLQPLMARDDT
Sequence of rat α6/α3β4 nAChR (P12392 whole entry, looked up): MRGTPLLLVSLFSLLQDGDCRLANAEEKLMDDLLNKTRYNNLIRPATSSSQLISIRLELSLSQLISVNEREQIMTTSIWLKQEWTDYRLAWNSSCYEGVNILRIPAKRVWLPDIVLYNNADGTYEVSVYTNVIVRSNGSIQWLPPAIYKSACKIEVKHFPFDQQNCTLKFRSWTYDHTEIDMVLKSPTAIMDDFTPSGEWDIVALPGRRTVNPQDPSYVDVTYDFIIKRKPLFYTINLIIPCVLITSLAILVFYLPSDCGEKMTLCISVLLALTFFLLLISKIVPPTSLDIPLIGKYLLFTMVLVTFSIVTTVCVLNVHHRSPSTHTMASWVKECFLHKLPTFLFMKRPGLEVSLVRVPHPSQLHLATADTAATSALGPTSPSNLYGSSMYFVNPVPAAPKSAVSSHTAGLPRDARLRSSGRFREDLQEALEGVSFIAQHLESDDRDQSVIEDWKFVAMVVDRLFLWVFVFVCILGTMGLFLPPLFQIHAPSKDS
Sequence of rat α6/α3β4 nAChR (P43143 whole entry, looked up): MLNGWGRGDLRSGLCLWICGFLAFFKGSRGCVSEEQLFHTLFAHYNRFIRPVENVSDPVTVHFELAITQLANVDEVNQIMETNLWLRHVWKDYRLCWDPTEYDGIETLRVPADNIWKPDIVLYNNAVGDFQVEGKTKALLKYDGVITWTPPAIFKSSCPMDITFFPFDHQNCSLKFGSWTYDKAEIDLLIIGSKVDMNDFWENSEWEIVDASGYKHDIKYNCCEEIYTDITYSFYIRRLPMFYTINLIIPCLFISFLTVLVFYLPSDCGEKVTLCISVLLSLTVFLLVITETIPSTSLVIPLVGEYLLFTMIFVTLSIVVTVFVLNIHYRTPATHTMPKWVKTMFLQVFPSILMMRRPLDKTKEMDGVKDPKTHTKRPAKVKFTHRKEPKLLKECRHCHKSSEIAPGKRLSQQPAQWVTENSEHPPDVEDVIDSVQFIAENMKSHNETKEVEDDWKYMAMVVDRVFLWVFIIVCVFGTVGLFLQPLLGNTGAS
Sequence of rat α3β4 nAChR (P04757 26-499 limits assumed): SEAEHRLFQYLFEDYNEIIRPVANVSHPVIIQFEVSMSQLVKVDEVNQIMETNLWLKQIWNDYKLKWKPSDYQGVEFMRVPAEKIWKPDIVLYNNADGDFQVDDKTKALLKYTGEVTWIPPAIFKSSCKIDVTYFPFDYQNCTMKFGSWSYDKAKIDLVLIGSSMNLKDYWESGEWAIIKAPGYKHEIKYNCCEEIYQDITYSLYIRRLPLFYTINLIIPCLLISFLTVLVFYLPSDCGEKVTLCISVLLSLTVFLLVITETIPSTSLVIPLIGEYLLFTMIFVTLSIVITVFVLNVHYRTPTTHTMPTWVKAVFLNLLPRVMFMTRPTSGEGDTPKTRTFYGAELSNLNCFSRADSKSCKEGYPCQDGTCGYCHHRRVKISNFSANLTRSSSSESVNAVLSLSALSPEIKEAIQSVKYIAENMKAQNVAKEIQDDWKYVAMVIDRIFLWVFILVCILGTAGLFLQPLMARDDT
Sequence of rat α3β4 nAChR (P12392 21-495 limits assumed): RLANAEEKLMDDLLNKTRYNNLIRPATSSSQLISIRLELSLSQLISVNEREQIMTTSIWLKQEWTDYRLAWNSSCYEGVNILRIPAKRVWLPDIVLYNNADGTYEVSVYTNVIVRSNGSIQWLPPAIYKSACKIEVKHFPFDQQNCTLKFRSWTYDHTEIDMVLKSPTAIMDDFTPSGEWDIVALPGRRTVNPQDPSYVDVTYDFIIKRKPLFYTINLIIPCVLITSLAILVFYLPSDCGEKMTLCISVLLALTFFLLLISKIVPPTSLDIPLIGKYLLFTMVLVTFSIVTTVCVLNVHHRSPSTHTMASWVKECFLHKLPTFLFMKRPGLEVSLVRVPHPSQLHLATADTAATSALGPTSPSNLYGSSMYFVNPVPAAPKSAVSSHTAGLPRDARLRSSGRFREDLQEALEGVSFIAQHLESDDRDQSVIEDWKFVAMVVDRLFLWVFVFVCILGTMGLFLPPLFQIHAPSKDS

SMILES	binding (blocking) activity to α3β4 nAChR compared with wild type TxID (rat α3β4 nAChR)	blocking of rat α3β4 nAChRs current (rat α3β4 nAChR)	elution after blocking the α3β4 nAChR current (rat α3β4 nAChR)	binding (blocking) activity to α6/α3β4 nAChR compared with wild type TxID (rat α6/α3β4 nAChR)	IC50 (rat α3β4 nAChR; α3β4 IC50 (half-blocking dose))	IC50 (rat α6/α3β4 nAChR; [1])	also measured
CC[C@H](C)[C@@H]1NC(=O)[C@@H]2CCCN2C(=O)[C@H](CO)NC(=O)[C@H](CCSC)NC(=O)[C@H](C)NC(=O)[C@H](Cc2c[nH]cn2)NC(=O)[C@@H]2CSSC[C@H](NC(=O)CN)C(=O)N[C@@H](CSSC[C@@H](C(N)=O)NC1=O)C(=O)N[C@@H](CO)C(=O)N[C@@H](Cc1c[nH]cn1)C(=O)N1CCC[C@H]1C(=O)N[C@@H](C(C)C)C(=O)N2 [TxID[S9H]] (HELM PEPTIDE1{G.C.C.S.H.P.V.C.H.A.M.S.P.I.C.[am]}$PEPTIDE1,PEPTIDE1,2:R3-8:R3|PEPTIDE1,PEPTIDE1,3:R3-15:R3$$$V2.0)	not significantly different from the activity of the wild type TxID	strong blocking activities	very slow	not significantly different from the activity of the wild type TxID	–	–	current after 2 min of elution (rat α3β4 nAChR): ~0 nA; α3β4 IC50 ratio (rat α3β4 nAChR): 0.7; IC50 ratio of α6/α3β4 vs. α3β4 (Discrimination) (rat α6/α3β4 nAChR): 5.6; α6/α3β4 IC50 ratio (rat α6/α3β4 nAChR): 0.4
CC[C@H](C)[C@@H]1NC(=O)[C@@H]2CCCN2C(=O)[C@H](CO)NC(=O)[C@H](CCSC)NC(=O)[C@H](C)NC(=O)[C@H](CO)NC(=O)[C@@H]2CSSC[C@H](NC(=O)CN)C(=O)N[C@@H](CSSC[C@@H](C(N)=O)NC1=O)C(=O)N[C@@H](CO)C(=O)N[C@@H](Cc1c[nH]c3ccccc13)C(=O)N1CCC[C@H]1C(=O)N[C@@H](C(C)C)C(=O)N2 [TxID[H5W]] (HELM PEPTIDE1{G.C.C.S.W.P.V.C.S.A.M.S.P.I.C.[am]}$PEPTIDE1,PEPTIDE1,2:R3-8:R3|PEPTIDE1,PEPTIDE1,3:R3-15:R3$$$V2.0)	–	–	–	–	> 10000 nM	> 10000 nM	–
CC[C@H](C)[C@@H]1NC(=O)[C@@H]2CCCN2C(=O)[C@H](CO)NC(=O)[C@H](CCSC)NC(=O)[C@H](C)NC(=O)[C@H](Cc2ccc(O)cc2)NC(=O)[C@@H]2CSSC[C@H](NC(=O)CN)C(=O)N[C@@H](CSSC[C@@H](C(N)=O)NC1=O)C(=O)N[C@@H](CO)C(=O)N[C@@H](Cc1c[nH]cn1)C(=O)N1CCC[C@H]1C(=O)N[C@@H](C(C)C)C(=O)N2 [TxID[S9Y]] (HELM PEPTIDE1{G.C.C.S.H.P.V.C.Y.A.M.S.P.I.C.[am]}$PEPTIDE1,PEPTIDE1,2:R3-8:R3|PEPTIDE1,PEPTIDE1,3:R3-15:R3$$$V2.0)	not significantly different from the activity of the wild type TxID	strong blocking activities	very slow	not significantly different from the activity of the wild type TxID	–	–	current after 2 min of elution (rat α3β4 nAChR): ~0 nA
CC[C@H](C)[C@@H]1NC(=O)[C@@H]2CCCN2C(=O)[C@H](CO)NC(=O)[C@H](CCSC)NC(=O)[C@H](C)NC(=O)[C@H](Cc2ccccc2)NC(=O)[C@@H]2CSSC[C@H](NC(=O)CN)C(=O)N[C@@H](CSSC[C@@H](C(N)=O)NC1=O)C(=O)N[C@@H](CO)C(=O)N[C@@H](Cc1cnc[nH]1)C(=O)N1CCC[C@H]1C(=O)N[C@@H](C(C)C)C(=O)N2 [TxID[S9F]] (HELM PEPTIDE1{G.C.C.S.H.P.V.C.F.A.M.S.P.I.C.[am]}$PEPTIDE1,PEPTIDE1,2:R3-8:R3|PEPTIDE1,PEPTIDE1,3:R3-15:R3$$$V2.0)	–	–	–	–	13.9 nM	7.11 nM	IC50 (rat α3β4 nAChR; α3β4 IC50): 10.7 nM; IC50 (rat α6/α3β4 nAChR; α6/α3β4 IC50): 10.2 nM
CC[C@@H]1NC(=O)[C@@H]2CSSC[C@H](NC(=O)CN)C(=O)N[C@@H](CSSC[C@@H](C(N)=O)NC(=O)[C@H]([C@@H](C)CC)NC(=O)[C@@H]3CCCN3C(=O)[C@H](CO)NC(=O)[C@H](CCSC)NC(=O)[C@H](C)NC1=O)C(=O)N[C@@H](CO)C(=O)N[C@@H](Cc1c[nH]cn1)C(=O)N1CCC[C@H]1C(=O)N[C@@H](C(C)C)C(=O)N2 [TxID[S9Abu], GCCSHPVCBAMSPIC*] (HELM PEPTIDE1{G.C.C.S.H.P.V.C.[Abu].A.M.S.P.I.C.[am]}$PEPTIDE1,PEPTIDE1,2:R3-8:R3|PEPTIDE1,PEPTIDE1,3:R3-15:R3$$$V2.0)	not significantly different from the activity of the wild type TxID	–	very slow	not significantly different from the activity of the wild type TxID	–	–	–
CC[C@H](C)[C@@H]1NC(=O)[C@@H]2CCCN2C(=O)[C@H](CO)NC(=O)[C@H](CCSC)NC(=O)[C@H](C)NC(=O)[C@H](CC(C)C)NC(=O)[C@@H]2CSSC[C@H](NC(=O)CN)C(=O)N[C@@H](CSSC[C@@H](C(N)=O)NC1=O)C(=O)N[C@@H](CO)C(=O)N[C@@H](Cc1c[nH]cn1)C(=O)N1CCC[C@H]1C(=O)N[C@@H](C(C)C)C(=O)N2 [TxID[S9L]] (HELM PEPTIDE1{G.C.C.S.H.P.V.C.L.A.M.S.P.I.C.[am]}$PEPTIDE1,PEPTIDE1,2:R3-8:R3|PEPTIDE1,PEPTIDE1,3:R3-15:R3$$$V2.0)	not significantly different from the activity of the wild type TxID	strong blocking activities	very slow	not significantly different from the activity of the wild type TxID	–	–	current after 2 min of elution (rat α3β4 nAChR): ~0 nA
CC[C@H](C)[C@@H]1NC(=O)[C@@H]2CCCN2C(=O)[C@H](CO)NC(=O)[C@H](CCSC)NC(=O)[C@H](C)NC(=O)[C@H](CO)NC(=O)[C@@H]2CSSC[C@H](NC(=O)CN)C(=O)N[C@@H](CSSC[C@@H](C(N)=O)NC1=O)C(=O)N[C@@H](CO)C(=O)N[C@@H](C)C(=O)N1CCC[C@H]1C(=O)N[C@@H](C(C)C)C(=O)N2 [TxID[H5A]] (HELM PEPTIDE1{G.C.C.S.A.P.V.C.S.A.M.S.P.I.C.[am]}$PEPTIDE1,PEPTIDE1,2:R3-8:R3|PEPTIDE1,PEPTIDE1,3:R3-15:R3$$$V2.0)	–	–	–	–	> 10000 nM	> 10000 nM	–
CC[C@H](C)[C@@H]1NC(=O)[C@@H]2CCCN2C(=O)[C@H](CO)NC(=O)[C@H](CCSC)NC(=O)[C@H](C)NC(=O)[C@H](CCCCN)NC(=O)[C@@H]2CSSC[C@H](NC(=O)CN)C(=O)N[C@@H](CSSC[C@@H](C(N)=O)NC1=O)C(=O)N[C@@H](CO)C(=O)N[C@@H](Cc1c[nH]cn1)C(=O)N1CCC[C@H]1C(=O)N[C@@H](C(C)C)C(=O)N2 [TxID[S9K]] (HELM PEPTIDE1{G.C.C.S.H.P.V.C.K.A.M.S.P.I.C.[am]}$PEPTIDE1,PEPTIDE1,2:R3-8:R3|PEPTIDE1,PEPTIDE1,3:R3-15:R3$$$V2.0)	–	completely blocked	–	–	–	–	blocking effect on the current of rat α6/α3β4 nAChRs (rat α6/α3β4 nAChR): no blocking effect; blocking of α6/α3β4 nAChR current as part of the control current (rat α6/α3β4 nAChR): less than ¼; current blockade (rat α6/α3β4 nAChR): less than 50%
CC[C@H](C)[C@@H]1NC(=O)[C@H](C)NC(=O)[C@H](CO)NC(=O)[C@H](CCSC)NC(=O)[C@H](C)NC(=O)[C@H](CO)NC(=O)[C@@H]2CSSC[C@H](NC(=O)CN)C(=O)N[C@@H](CSSC[C@@H](C(N)=O)NC1=O)C(=O)N[C@@H](CO)C(=O)N[C@@H](Cc1c[nH]cn1)C(=O)N1CCC[C@H]1C(=O)N[C@@H](C(C)C)C(=O)N2 [TxID[P13A]] (HELM PEPTIDE1{G.C.C.S.H.P.V.C.S.A.M.S.A.I.C.[am]}$PEPTIDE1,PEPTIDE1,2:R3-8:R3|PEPTIDE1,PEPTIDE1,3:R3-15:R3$$$V2.0)	–	–	–	–	> 10000 nM	> 10000 nM	–
CC[C@H](C)[C@@H]1NC(=O)[C@@H]2CCCN2C(=O)[C@H](CO)NC(=O)[C@H](Cc2c[nH]cn2)NC(=O)[C@H](C)NC(=O)[C@H](CO)NC(=O)[C@@H]2CSSC[C@H](NC(=O)CN)C(=O)N[C@@H](CSSC[C@@H](C(N)=O)NC1=O)C(=O)N[C@@H](CO)C(=O)N[C@@H](Cc1c[nH]cn1)C(=O)N1CCC[C@H]1C(=O)N[C@@H](C(C)C)C(=O)N2 [TxID[M11H]] (HELM PEPTIDE1{G.C.C.S.H.P.V.C.S.A.H.S.P.I.C.[am]}$PEPTIDE1,PEPTIDE1,2:R3-8:R3|PEPTIDE1,PEPTIDE1,3:R3-15:R3$$$V2.0)	–	–	–	–	> 10000 nM	3490 nM	blocking effect on the current of rat α3β4 nAChRs (rat α3β4 nAChR): no blocking effects; α6/α3β4 IC50 ratio (rat α6/α3β4 nAChR): 103; IC50 (rat α6/α3β4 nAChR; α6/α3β4 IC50): 1000 to 10000 nM
CC[C@H](C)[C@@H]1NC(=O)[C@@H]2CCCN2C(=O)[C@H](CO)NC(=O)[C@H](CCSC)NC(=O)[C@H](C)NC(=O)[C@H](CO)NC(=O)[C@H](CCCNC(=N)N)NC(=O)[C@@H]2CSSC[C@H](NC(=O)CN)C(=O)N[C@@H](CSSC[C@@H](C(N)=O)NC1=O)C(=O)N[C@@H](CO)C(=O)N[C@@H](Cc1c[nH]cn1)C(=O)N1CCC[C@H]1C(=O)N[C@@H](C(C)C)C(=O)N2 [TxID[9R]] (HELM PEPTIDE1{G.C.C.S.H.P.V.C.R.S.A.M.S.P.I.C.[am]}$PEPTIDE1,PEPTIDE1,2:R3-8:R3|PEPTIDE1,PEPTIDE1,3:R3-16:R3$$$V2.0)	–	–	–	–	> 10000 nM	> 10000 nM	–
CSCC[C@@H]1NC(=O)[C@H](C)NC(=O)[C@H](CO)NC(=O)[C@@H]2CSSC[C@H](NC(=O)CN)C(=O)N[C@@H](CSSC[C@@H](C(N)=O)NC(=O)[C@H](CCCNC(=N)N)NC(=O)[C@@H]3CCCN3C(=O)[C@H](CO)NC1=O)C(=O)N[C@@H](CO)C(=O)N[C@@H](Cc1c[nH]cn1)C(=O)N1CCC[C@H]1C(=O)N[C@@H](C(C)C)C(=O)N2 [TxID[I14R]] (HELM PEPTIDE1{G.C.C.S.H.P.V.C.S.A.M.S.P.R.C.[am]}$PEPTIDE1,PEPTIDE1,2:R3-8:R3|PEPTIDE1,PEPTIDE1,3:R3-15:R3$$$V2.0)	–	–	–	–	9.2 nM	67.4 nM	α3β4 IC50 ratio (rat α3β4 nAChR): 2.5; IC50 ratio of α6/α3β4 vs. α3β4 (Discrimination) (rat α6/α3β4 nAChR): 7.3; α6/α3β4 IC50 ratio (rat α6/α3β4 nAChR): 2.0
CC[C@H](C)[C@@H]1NC(=O)[C@@H]2CCCN2C(=O)[C@H](CO)NC(=O)[C@H](CCSC)NC(=O)[C@H](C)NC(=O)[C@H](C)NC(=O)[C@@H]2CSSC[C@H](NC(=O)CN)C(=O)N[C@@H](CSSC[C@@H](C(N)=O)NC1=O)C(=O)N[C@@H](CO)C(=O)N[C@@H](Cc1c[nH]cn1)C(=O)N1CCC[C@H]1C(=O)N[C@@H](C(C)C)C(=O)N2 [TxID[S9A]] (HELM PEPTIDE1{G.C.C.S.H.P.V.C.A.A.M.S.P.I.C.[am]}$PEPTIDE1,PEPTIDE1,2:R3-8:R3|PEPTIDE1,PEPTIDE1,3:R3-15:R3$$$V2.0)	no effect on the blocking activity	–	–	–	–	–	current blocked (rat α3β4 nAChR): 98% and 75%; blocking activity to α6β4* nAChRs subtype (rat α6/α3β4 nAChR): completely lost the blocking activity; current blocked (rat α6/α3β4 nAChR): 26%
